Like-named read-outs stand apart in the source and are kept apart here.
Key:
ATM = ATM (Homo sapiens (Human), UniProt Q13315); assay: biochemical; format: biochemical; settings: read-out: ATM IC50
Description: Assay a): ATM Biochemical Potency
Data was collected by Caliper.

[1] = tested on: phosp-KAP1 in MCF-7 cells; assay: phosp-KAP1 MCF-7 cellular potency assay (Assay f); format: cell-based; settings: Homo sapiens
Method: Assay f): phosp-KAP1 MCF-7 Cellular Potency
MCF-7 cells were seeded to a 384-well cell-culture plate, 25 μl/well which were incubated at 37° C. and 5% CO2 for 24 hr. Test compounds were added to the 384-well plates. Etoposide at final concentration of 100 μM was then added to each well except Vehicle control wells, which were incubated at 37° C. and 5% CO2 for 1 hour. After medium removal, cells were fixed by the addition of 25 μl/well of 8% paraformaldehyde in PBSA and incubated for 20 minutes at room temperature. After the plates were rinsed 3 times with PBSA, 50 ul permeabilization buffer (0.1% Triton X-100 in PBS) was added and the plates were incubated for 20 minutes at room temperature. After the plates were rinsed with PBSA, block the cells by adding 50 μl of Odyssey Blocking Buffer in 384-well plate and then incubate for 1.5 hours at room temperature. Remove blocking buffer by Plate washer (BioTek ELx405 select CW). […] The plates were rinsed 5 times with PBST (0.1% Tween-20 in PBS).
• 1) Fluorescence intensity (FI) was detected for each well. • 2) % inhibition is calculated as follow:
[formula] • FIpositive: The average FI for the positive controls across the plate. • FIvehicle: The average FI for negative controls across the plate. • 3) Calculate IC50 and Plot effect-dose curve of compounds: • Calculate IC50 by fitting % inhibition values and log of compound concentrations to nonlinear regression (dose response−variable slope) with Graphpad prism 6.0.
Y=Bottom+(Top−Bottom)/(1+10^((Log IC50−X)*HillSlope)) • X: log of compounds concentration; Y: % inhibition

FaDu xenograft = FaDu xenograft model, radiation combination (Assay i); format: in vivo, mouse; settings: total IR 30 Gy (3 cycles), combo with IR
Method: Assay i): FaDu Xenograft Model
Cell culture: FaDu tumor cells were cultured in an EMEM medium containing inactivated 10% fetal bovine serum, 100 U/ml penicillin and 100 μg/ml streptomycin in a 37° C., 5% CO2 incubator.
Inoculation and grouping: Xenografts were established by implantation of 100 μl of Fadu tumor cell suspension (5×10^6 cells/mouse) subcutaneously into the right flank of female immune-compromised BALB/c nude mice at least 6 weeks of age. Tumours were measured in two dimensions with calipers and the tumour volume was calculated using the following formula: tumor volume=(length×width^2)×0.5. When the average tumor volume reached 100 to 150 mm^3, tumour-bearing mice were randomized into treatment groups.
Treatment and tumor assessment: Animals received 3 to 6 cycles of treatment with compounds combined with radiation therapy. Each cycle included 5 consecutive treatment day plus 2 days' rest. Ionizing radiation was administered using a fractionated schedule of 2 Gy per day administered over 5 consecutive days (total radiation dose=10 Gy/cycle). Compound was given orally 10 minutes before irradiation. The tumour volume and body weight of the mice were measured twice weekly.
Statistical Analysis: The One-Way ANOVA test was used for statistical analysis of tumor volume between groups, and p<0.05 was considered as a significant difference.

[2] = molecular target: ATM (phospho-ATM Ser1981) in SN38 treated HT-29 cells (Homo sapiens (Human), UniProt Q13315); assay: cell-based; settings: HT-29 cells, SN-38; read-out: SN-38 HT-29 cellular IC50
Sequence of ATM (phospho-ATM Ser1981) in SN38 treated HT-29 cells (Q13315 whole entry, looked up): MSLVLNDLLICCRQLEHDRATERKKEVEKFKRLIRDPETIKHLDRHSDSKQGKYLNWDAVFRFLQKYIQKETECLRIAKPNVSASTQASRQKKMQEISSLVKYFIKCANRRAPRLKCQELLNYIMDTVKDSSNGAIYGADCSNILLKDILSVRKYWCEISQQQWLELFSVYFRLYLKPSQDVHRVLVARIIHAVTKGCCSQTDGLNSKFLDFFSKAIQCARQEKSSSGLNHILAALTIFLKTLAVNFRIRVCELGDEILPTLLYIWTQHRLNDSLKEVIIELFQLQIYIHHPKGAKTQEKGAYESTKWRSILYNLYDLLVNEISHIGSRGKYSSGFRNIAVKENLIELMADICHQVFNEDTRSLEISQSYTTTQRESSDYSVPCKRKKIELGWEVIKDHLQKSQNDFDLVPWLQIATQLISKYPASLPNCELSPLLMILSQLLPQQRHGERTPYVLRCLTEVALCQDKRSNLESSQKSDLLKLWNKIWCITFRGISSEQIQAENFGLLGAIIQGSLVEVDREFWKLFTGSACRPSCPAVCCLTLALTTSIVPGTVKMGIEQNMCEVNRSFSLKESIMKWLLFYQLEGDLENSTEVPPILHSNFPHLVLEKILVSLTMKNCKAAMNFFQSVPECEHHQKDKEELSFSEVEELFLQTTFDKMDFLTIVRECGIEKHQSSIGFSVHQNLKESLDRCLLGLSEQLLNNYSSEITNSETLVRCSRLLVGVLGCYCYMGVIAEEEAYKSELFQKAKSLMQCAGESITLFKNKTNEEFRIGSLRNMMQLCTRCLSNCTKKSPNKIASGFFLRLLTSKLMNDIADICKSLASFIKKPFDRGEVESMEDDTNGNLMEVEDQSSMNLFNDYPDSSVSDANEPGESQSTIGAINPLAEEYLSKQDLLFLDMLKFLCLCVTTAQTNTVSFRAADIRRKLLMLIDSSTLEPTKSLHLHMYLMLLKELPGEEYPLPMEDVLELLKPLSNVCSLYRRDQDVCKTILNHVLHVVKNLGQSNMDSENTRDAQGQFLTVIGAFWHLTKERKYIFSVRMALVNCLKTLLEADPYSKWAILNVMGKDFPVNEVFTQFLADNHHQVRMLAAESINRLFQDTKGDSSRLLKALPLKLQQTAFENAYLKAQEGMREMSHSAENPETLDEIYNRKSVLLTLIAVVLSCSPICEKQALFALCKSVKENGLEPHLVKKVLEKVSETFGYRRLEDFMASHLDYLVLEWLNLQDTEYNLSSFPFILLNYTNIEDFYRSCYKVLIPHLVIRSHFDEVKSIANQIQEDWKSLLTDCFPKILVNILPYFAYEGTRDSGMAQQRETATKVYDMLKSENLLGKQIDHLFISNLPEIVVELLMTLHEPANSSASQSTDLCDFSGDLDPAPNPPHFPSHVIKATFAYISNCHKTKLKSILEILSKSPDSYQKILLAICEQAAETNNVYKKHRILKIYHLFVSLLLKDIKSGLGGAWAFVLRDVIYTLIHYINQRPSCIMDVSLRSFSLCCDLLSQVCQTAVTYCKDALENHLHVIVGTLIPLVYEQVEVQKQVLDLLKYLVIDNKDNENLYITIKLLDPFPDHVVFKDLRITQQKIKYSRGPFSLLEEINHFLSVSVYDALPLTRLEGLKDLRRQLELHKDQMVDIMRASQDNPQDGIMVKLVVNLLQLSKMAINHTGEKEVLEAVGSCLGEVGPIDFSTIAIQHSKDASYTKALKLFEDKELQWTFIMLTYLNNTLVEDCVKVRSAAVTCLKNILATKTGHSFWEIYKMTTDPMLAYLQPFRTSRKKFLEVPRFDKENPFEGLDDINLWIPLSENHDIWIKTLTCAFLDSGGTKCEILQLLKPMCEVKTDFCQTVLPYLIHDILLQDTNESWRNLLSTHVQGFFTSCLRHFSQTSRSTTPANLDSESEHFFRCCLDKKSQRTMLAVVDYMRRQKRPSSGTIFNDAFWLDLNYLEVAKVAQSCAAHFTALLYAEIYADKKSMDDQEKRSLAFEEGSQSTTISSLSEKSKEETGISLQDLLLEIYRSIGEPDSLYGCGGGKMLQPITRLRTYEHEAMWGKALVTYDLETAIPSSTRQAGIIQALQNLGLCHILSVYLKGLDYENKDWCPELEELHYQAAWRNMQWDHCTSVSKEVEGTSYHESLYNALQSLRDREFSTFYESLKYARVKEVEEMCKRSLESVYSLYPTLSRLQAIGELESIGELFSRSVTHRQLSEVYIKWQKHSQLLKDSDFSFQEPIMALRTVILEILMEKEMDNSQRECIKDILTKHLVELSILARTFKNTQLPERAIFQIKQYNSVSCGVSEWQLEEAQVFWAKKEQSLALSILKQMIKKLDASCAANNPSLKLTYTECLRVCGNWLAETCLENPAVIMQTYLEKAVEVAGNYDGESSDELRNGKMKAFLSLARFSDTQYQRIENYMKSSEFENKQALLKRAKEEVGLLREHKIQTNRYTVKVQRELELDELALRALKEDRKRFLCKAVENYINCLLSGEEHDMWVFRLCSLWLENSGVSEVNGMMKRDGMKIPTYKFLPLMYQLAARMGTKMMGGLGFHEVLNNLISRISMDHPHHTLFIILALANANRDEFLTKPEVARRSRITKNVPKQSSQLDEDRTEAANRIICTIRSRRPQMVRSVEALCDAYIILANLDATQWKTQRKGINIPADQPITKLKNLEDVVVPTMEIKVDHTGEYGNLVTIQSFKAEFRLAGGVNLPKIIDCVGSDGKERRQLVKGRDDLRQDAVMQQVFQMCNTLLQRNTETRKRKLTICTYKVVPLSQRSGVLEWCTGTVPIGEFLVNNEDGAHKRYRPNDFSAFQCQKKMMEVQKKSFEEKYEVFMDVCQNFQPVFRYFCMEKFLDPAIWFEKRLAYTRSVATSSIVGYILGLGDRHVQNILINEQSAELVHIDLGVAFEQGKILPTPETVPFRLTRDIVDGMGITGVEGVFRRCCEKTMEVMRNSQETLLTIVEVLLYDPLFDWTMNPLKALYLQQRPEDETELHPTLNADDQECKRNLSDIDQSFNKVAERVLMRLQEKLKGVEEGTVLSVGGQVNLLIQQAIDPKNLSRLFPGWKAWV
Method: Assay g): ATM SN-38 HT-29 Cellular Potency
SN38 causes single strand DNA breaks (SSBs) which are converted to double strand breaks (DSBs) during replication. ATM plays role of repairing DSBs. Inhibition of ATM was evaluated in SN38 treated HT-29 cells (ATCC, Cat #HTB-38) by high-Content Imaging System
The graphical views were then generated using Prism 7.0 (Graphpad).

ATR = ATR (Homo sapiens (Human), UniProt Q13535); assay: ATR biochemical potency assay (Assay b)
Method: Assay b): ATR Biochemical Potency
The plate was incubated at room temperature for 10 minutes. 2× peptide solutions were prepared with FAM-labeled peptide and ATP in the 1× kinase base buffer. […] 40 μl of stop buffer was added to stop reaction. Data were collected by Caliper.

mTOR = mTOR (Homo sapiens (Human), UniProt P42345); assay: mTOR biochemical potency assay (Assay d); settings: read-out: mTor IC50
Method: Assay d): mTOR Biochemical Potency
Solution of mTOR enzymes (Millipore, Cat. No. 14-770) was prepared in 1× kinase buffer at 4-fold of the final concentration (final concentration: 6 nM) in the assay. 2.5 μl of kinase solution was added to each well of the 384-well assay plate, which contains 2.5 μl of compounds with serially diluted concentration. 2× substrate solution was prepared with ULight-4E-BP1 (Thr37/46) Peptide (PE, Cat. No. TRF0128-M) and ATP in 1× kinase reaction buffer at 2-fold of the final concentration of each reagent in the assay. 5 μl of substrate solution was added to each well of the assay plate to start reaction. The assay plate was incubated at room temperature for 30 minutes. Detection solution of kinase quench buffer (EDTA) and Eu-anti-phospho-4E-BP1 antibody (Thr37/46) (PE, Cat. No. TRF0216-M) were prepared at 2-fold the desired final concentrations of each reagent in Lance detection buffer. 10 μl of detection solution buffer was added to each well of the assay plate.

[3] = MCF7, read-out: Etoposide MCF-7 cellular IC50
[4] = MCF7, MCF-7 cells, etoposide, read-out: Etoposide MCF-7 cellular IC50

Sequence of ATM (Q13315 whole entry, looked up): as above

| SMILES | IC50 (ATM) [nM] | IC50 [1, 4] [nM] | IC50 [2] [nM] | also measured |
| --- | --- | --- | --- | --- |
| CC(C)n1c(=O)n(C)c2nnc3ccc(-c4ccc(COCCN5CC6CC6C5)nc4)cc3c21 (stereo not shown) [Example 1, 8-(6-((2-(3-azabicyclo[3.1.0]hexan-3-yl)ethoxy)methyl)pyridin-3-yl)-1-isopropyl-3-methyl-1H-imidazo[4,5-c]cinnolin-2(3H)-one] | 16 |  |  | IC50 [1, 3]: 40 nM; Inhibition (% TGI) Combo (FaDu xenograft; 50 mg/kg PO. TID): 76.8 ± 2.72 % TGI; Inhibition (% TGI) Combo (FaDu xenograft; 150 mg/kg PO. TID): 92.0 ± 1.31 % TGI |
| CC(C)n1c(=O)n(C)c2nnc3ccc(-c4ccc(COCCN5CCC(F)CC5)nc4)cc3c21 [Example 5, 8-(6-((2-(4-fluropiperidin-1-yl)ethoxy)methyl)pyridin-3-yl)-1-isopropyl-3-methyl-1H-imidazo[4,5-c]cinnolin-2(3H)-one] | 14 | 27 | 130 | Inhibition (% TGI) Combo (FaDu xenograft; 50 mg/kg PO. TID): 79.6 ± 2.78 % TGI; Inhibition (% TGI) Combo (FaDu xenograft; 150 mg/kg PO. TID): 91.9 ± 1.16 % TGI |
| CC(C)n1c(=O)n(C)c2nnc3ccc(-c4ccc(COCCN5CCC(C)(C)C5)nc4)cc3c21 [Example 36, 8-(6-((2-(3,3-dimethylpyrrolidin-1-yl)ethoxy)methyl)pyridin-3-yl)-1-isopropyl-3-methyl-1H-imidazo[4,5-c]cinnolin-2(3H)-one] | 4.7 |  | 20 | IC50 [1, 3]: 20 nM |
| CO[C@H]1CCN(CCOCc2ccc(-c3ccc4nnc5c(c4c3)n(C(C)C)c(=O)n5C)cn2)C1 [Example 43, (S)-1-isopropyl-8-(6-((2-(3-methoxypyrrolidin-1-yl)ethoxy)methyl)pyridin-3-yl)-3-methyl-1H-imidazo[4,5-c]cinnolin-2(3H)-one] | 12 |  | 92 |  |
| CO[C@@H]1CCN(CCO[C@H](C)c2ccc(-c3ccc4nnc5c(c4c3)n(C(C)C)c(=O)n5C)cn2)C1 [Example 57, 1-isopropyl-8-(6-((R)-1-(2-((R)-3-methoxypyrrolidin-1-yl)ethoxy)ethyl)pyridin-3-yl)-3-methyl-1H-imidazo[4,5-c]cinnolin-2(3H)-one] | 4.2 | 20 | 19 |  |
| CC(C)n1c(=O)n(C)c2nnc3ccc(-c4ccc([C@@H](C)OCCN5CCC(F)CC5)nc4)cc3c21 [Example 69, (R)-8-(6-(1-(2-(4-fluoropiperidin-1-yl)ethoxy)ethyl)pyridin-3-yl)-1-isopropyl-3-methyl-1H-imidazo[4,5-c]cinnolin-2(3H)-one] | 5.2 | 34 | 47 |  |
| CC(C)n1c(=O)n(C)c2nnc3ccc(-c4ccc([C@@H](C)OCCN5CCC(C)(C)CC5)nc4)cc3c21 [Example 73, (R)-8-(6-(1-(2-(4,4-dimethylpiperidin-1-yl)ethoxy)ethyl)pyridin-3-yl)-1-isopropyl-3-methyl-1H-imidazo[4,5-c]cinnolin-2(3H)-one] | 3.5 |  | 9.1 | IC50 [1, 3]: 9.1 nM |
| C[C@@H](OCCN1CCC2(CC1)CC2)c1ccc(-c2ccc3nnc4c(c3c2)n(C2CCOCC2)c(=O)n4C)cn1 [Example 107, (R)-8-(6-(1-(2-(6-azaspiro[2.5]octan-6-yl)ethoxy)ethyl)pyridin-3-yl)-3-methyl-1-(tetrahydro-2H-pyran-4-yl)-1H-imidazo[4,5-c]cinnolin-2(3H)-one] |  |  |  | IC50 [1, 3]: 12 nM; IC50 (ATR): > 10000 nM; IC50 (mTOR): > 10000 nM |
| CC(C)n1c(=O)n(C)c2nnc3cc(F)c(-c4ccc([C@@H](C)OCCN5CCC(C)(C)C5)nc4)cc3c21 [Example 137, (R)-8-(6-(1-(2-(3,3-dimethylpyrrolidin-1-yl)ethoxy)ethyl)pyridin-3-yl)-7-fluoro-1-isopropyl-3-methyl-1H-imidazo[4,5-c]cinnolin-2(3H)-one] | 6.3 | 22 |  |  |
| CC(C)n1c(=O)n(C)c2nnc3cc(F)c(-c4ccc([C@@H](C)OCCN5CCC6(CC5)CC6)nc4)cc3c21 [Example 140, (R)-8-(6-(1-(2-(6-azaspiro[2.5]octan-6-yl)ethoxy)ethyl)pyridin-3-yl)-7-fluoro-1-isopropyl-3-methyl-1H-imidazo[4,5-c]cinnolin-2(3H)-one] | 2.8 | 14 |  |  |
| COC1CCN(CCO[C@H](C)c2ccc(-c3cc4c(cc3F)nnc3c4n(C(C)C)c(=O)n3C)cn2)CC1 [Example 142, (R)-7-fluoro-1-isopropyl-8-(6-(1-(2-(4-methoxypiperidin-1-yl)ethoxy)ethyl)pyridin-3-yl)-3-methyl-1H-imidazo[4,5-c]cinnolin-2(3H)-one] | 4.7 | 24 |  |  |
| CC(C)n1c(=O)n(C)c2nnc3cc(F)c(-c4ccc([C@@H](C)OCCN5CCC(OC(F)(F)F)CC5)nc4)cc3c21 [Example 144, (R)-7-fluoro-1-isopropyl-3-methyl-8-(6-(1-(2-(4-(trifluoromethoxy)piperidin-1-yl)ethoxy)ethyl)pyridin-3-yl)-1H-imidazo[4,5-c]cinnolin-2(3H)-one] | 2.9 | 47 |  |  |
| C[C@@H](OCCN1CCC(C)(C)C1)c1ccc(-c2cc3c(cc2F)nnc2c3n(C3CCOCC3)c(=O)n2C)cn1 [Example 153, (R)-8-(6-(1-(2-(3,3-dimethylpyrrolidin-1-yl)ethoxy)ethyl)pyridin-3-yl)-7-fluoro-3-methyl-1-(tetrahydro-2H-pyran-4-yl)-1H-imidazo[4,5-c]cinnolin-2(3H)-one] | 8.5 | 43 |  |  |
| CO[C@H]1C[C@@H](n2c(=O)n(C)c3nnc4ccc(-c5ccc(COCCN6CCC(F)CC6)nc5)cc4c32)C1 [Example 174, 8-(6-((2-(4-fluoropiperidin-1-yl)ethoxy)methyl)pyridin-3-yl)-1-(cis-3-methoxycyclobutyl)-3-methyl-1H-imidazo[4,5-c]cinnolin-2(3H)-one] | 28 | 26 |  |  |
| CO[C@H]1C[C@@H](n2c(=O)n(C)c3nnc4ccc(-c5ccc(COCCN6CC7CC7C6)nc5)cc4c32)C1 (stereo partly drawn) [Example 175, 8-(6-((2-(3-azabicyclo[3.1.0]hexan-3-yl)ethoxy)methyl)pyridin-3-yl)-1-(cis-3-methoxycyclobutyl)-3-methyl-1H-imidazo[4,5-c]cinnolin-2(3H)-one] | 25 | 33 | 170 |  |
| CC(C)n1c(=O)n(C)c2nnc3cc(F)c(-c4ccc(COCCN5CCC(F)CC5)nc4)cc3c21 [Ref compd 1, 7-fluoro-8-(6-((2-(4-fluoropiperidin-1-yl)ethoxy)methyl)pyridin-3-yl)-1-isopropyl-3-methyl-1H-imidazo[4,5-c]cinnolin-2(3H)-one, reference compound] | 25 |  | 273 |  |
